These results are taken from publication PMC5825229 (Molecular cell, 2017).

Substitutions are numbered along the chain they refer to.

Holding throughout (format): biochemical
The target of experiment [1] is T1, human MCU and EMRE reconstituted in yeast mitochondria (HsMCU/EMRE) (Homo sapiens, UniProt Q8NE86).
T1 sequence (Q8NE86 51-351): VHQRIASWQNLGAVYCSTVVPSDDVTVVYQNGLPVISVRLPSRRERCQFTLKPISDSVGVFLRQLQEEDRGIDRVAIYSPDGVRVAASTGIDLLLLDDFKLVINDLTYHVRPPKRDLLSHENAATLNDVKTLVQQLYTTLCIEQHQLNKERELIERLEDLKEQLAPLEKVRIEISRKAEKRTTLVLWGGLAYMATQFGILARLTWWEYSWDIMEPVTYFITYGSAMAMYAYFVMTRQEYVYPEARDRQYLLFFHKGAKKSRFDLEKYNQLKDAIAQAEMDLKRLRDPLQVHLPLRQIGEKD
T1 sequence (Q9H4I9 53-107 partner): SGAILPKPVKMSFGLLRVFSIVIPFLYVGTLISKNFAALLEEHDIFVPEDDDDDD
Put plainly: aequorin Ca2+ uptake rate in isolated yeast mitochondria, Hill fit.

Experiment [2] has as its target T2, MCU (native mitochondrial calcium uniporter of HEK293T mitoplasts and HeLa cells) (Homo sapiens, UniProt Q8NE86).
T2 sequence (Q8NE86 51-351): T1 sequence (Q8NE86 51-351)
T2 sequence (Q9H4I9 53-107 partner): T1 sequence (Q9H4I9 53-107 partner)
Put plainly: whole-mitoplast patch clamp, HEK293T. Particulars: 1 mM bath Ca2+, -160 mV; bath (cytosolic) side, reversible. On the technique in general: Patch clamp records ionic current or voltage across a cell membrane.

The target in experiment [3] is T3, human MCU and EMRE reconstituted in yeast mitochondria (HsMCU/EMRE) (Homo sapiens, UniProt Q8NE86, D261A).
T3 sequence (Q8NE86 51-351 D261A): T1 sequence (Q8NE86 51-351) with D211A
T3 sequence (Q9H4I9 53-107 partner): T1 sequence (Q9H4I9 53-107 partner)
The experiment can be described thus: aequorin peak Ca2+ in isolated yeast mitochondria, Hill fit.

With `Nc1ccc(NCCNCCO)c2c1C(=O)c1c(O)ccc(O)c1C2=O` [impurity A], in experiment [1], the midpoint of inhibition, the IC50, lay at 36 ± 0.2 µM.

Consider `O=C1c2c(O)ccc(O)c2C(=O)c2c(NCCNCCO)ccc(NCCNCCO)c21` [mitoxantrone], for which the “% reduction of MCU Ca2+ current at 10 μM” value in experiment [2] is ~ 85%. Also, the results for the IC50 in experiment [1] and in experiment [3] were 8.3 ± 0.9 µM and 10.7 ± 1.4 µM, respectively.

`NCCNc1ccc(NCCN)c2c1C(=O)c1ccncc1C2=O` [pixantrone]: the IC50 (commonly the concentration that inhibits the measured activity by half) in experiment [1] came out at 15 ± 1 µM; in experiment [3], 31.8 ± 6.5 µM.
